In one data set the test system is SARS-CoV-2. Nature of the data set: cell viability (CPE) assay, VERO-E6 cells enriched for ACE-2 infected with SARS-CoV-2, CellTiter-Glo. Format: cell-based. Conditions: for IC50: VERO-E6 cells enriched for ACE-2 plus SARS-CoV-2; for EC50: CPE assay.
Data set [1] in a line: toxicity assay, VERO-E6 cells enriched for ACE-2 in the absence of virus, CellTiter-Glo. The conditions noted are these: African green monkey, VERO-E6 cells enriched for ACE-2 receptor, no virus. For orientation: Cellular ATP, detected with luciferase, serves as a proxy for viable cell number.
Data set [2] has as its system IRAK1, NF-κB, MAPKs, IRAK4 (MyD88). Nature of the data set: MyD88 downstream signalling in human macrophages. It is filed as cell-based.
The next data set relates to VERO-E6 cells. Nature of the data set: toxicity assay, VERO-E6 cells enriched for ACE-2 in the absence of virus, CellTiter-Glo. The conditions noted are these: compound alone.
Setting [3] is: Severe acute respiratory syndrome coronavirus 2, Vero C1008, positive controls, read-out: IC50 (μM), In Vitro Anti-SARS-CoV-2 Activity.
[4] abbreviates: human macrophages, through interaction with MyD88.

Like-named read-outs stand apart in the source and are kept apart here.

Results on seven molecules are retold here after US20230310414A1.

The term IC50 denotes the point on the concentration scale where inhibition reaches its midpoint. As a reminder, the CC50 is the concentration that lowers cell viability or growth by half. A lower CC50 goes with harm at low concentration. A word on the EC50: it is the concentration at which the effect is half-maximal.

Turning to `CCN(CC)CCCC(C)Nc1ccnc2cc(Cl)ccc12` (centres unmarked) [Chloroquine, chloroquine, reference compound], the 50% inhibitory concentration (IC50) with SARS-CoV-2 (setting [3]) is 3.78 µM. This molecule yielded a CC50 in data set [1] greater than 30 µM.

Molecule `CCC(CC)COC(=O)[C@H](C)N[P@](=O)(OC[C@H]1O[C@@](C#N)(c2ccc3c(N)ncnn23)[C@H](O)[C@@H]1O)Oc1ccccc1` [Remdesivir, remdesivir, reference compound] showed a 50% cytotoxic concentration (CC50) in data set [1] greater than 30 µM.

`O.O=C(OC[C@H]1O[C@@H](OC(=O)c2cc(O)c(O)c(O)c2)[C@H](OC(=O)c2cc(O)c(O)c(O)c2)[C@@H](OC(=O)c2cc(O)c(O)c(O)c2)[C@@H]1OC(=O)c1cc(O)c(O)c(O)c1)c1cc(O)c(O)c(O)c1`: the “NF-κB translocation into the nucleus” value in data set [2] is “inhibited”. In data set [2] (setting [4]), the “activation of IRAK1, NF-κB, and MAPKs” value was “potently reduced”; the “expression of IRAK4” value is given as “increasing expression”.

The molecule `COc1ccc2cc1Oc1ccc(cc1)C[C@H]1c3cc(c(OC)cc3CCN1C)Oc1c(OC)c(OC)cc3c1[C@H](C2)N(C)CC3` [tetrandrine, (1S,14S)-9,20,21,25-tetramethoxy-15,30-dimethyl-7,23-dioxa-15,30-diazaheptacyclo[22.6.2.2^3,6.1^8,12.1^14,18.0^27,31.0^22,33]hexatriaconta-3(36),4,6(35),8,10,12(34),18,20,22(33),24,26,31-dodecaene] displayed an EC50 with SARS-CoV-2 (Severe acute respiratory syndrome coronavirus 2, Vero C1008, compound alone) of 1.25 µM. For the same molecule, in the data set with SARS-CoV-2 (compound alone), the “SI (selectivity index; CC50/EC50)” value was “SI: 5.02”. For the same molecule, half-maximal cytotoxicity in data set [1] (CC50) was put at 6.28 µM.

For the molecule `CCOC(=O)[C@H]1O[C@@H]1C(=O)N[C@@H](CC(C)C)C(=O)NCCC(C)C` [E64d (aloxistatin), aloxistatin, reference compound], in the data set on SARS-CoV-2 (setting [3]), the concentration for half-maximal inhibition (IC50) was found to be 7.48 µM. The CC50 in data set [1] was greater than 30 µM.

In the case of “(14S,27S)-22,33-dimethoxy-13,28-dimethyl-2,5,7,20-tetraoxa-13,28-diazaoctacyclo[25.6.2.2^16,19.1^3,10.1^21,25.0^4,8.0^31,35.0^14,39]nonatri-aconta-1(33),3(39),4(8),9,16(38),17,19(37),21,23,25(36),31,34-dodecaene [cepharanthine]”, the response in the data set with SARS-CoV-2 (compound alone) was half-maximal at 0.51 µM (EC50). Also, the concentration for half-maximal inhibition (IC50) in the data set on SARS-CoV-2 (compound alone, read-out: IC50) came to 0.51 µM. Also, the 50% cytotoxic concentration (CC50) in the data set on VERO-E6 cells (VERO-E6 cells enriched for ACE-2, absence of virus) amounted to 7.22 µM; in the data set with VERO-E6 cells, 7.22 µM.

Consider `CCN(CCO)CCCC(C)Nc1ccnc2cc(Cl)ccc12` (centres unmarked) [Hydroxychloroquine, hydroxychloroquine, reference compound], for which the IC50 in the data set on SARS-CoV-2 (setting [3]) is 3.53 µM. Further, the CC50 in data set [1] is greater than 30 µM.
